The compounds below were run against c-Kit (Homo sapiens, UniProt P10721) (assay: c-Kit biochemical assay (per US 2007/0032519)).
How it was run: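 Biochemical kinase inhibition run per US 2007/0032519; values reported as binned IC50 ranges (0.0001–1 μM, 1–10 μM, 10–200 μM).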

Chain of c-Kit (P10721 26-976): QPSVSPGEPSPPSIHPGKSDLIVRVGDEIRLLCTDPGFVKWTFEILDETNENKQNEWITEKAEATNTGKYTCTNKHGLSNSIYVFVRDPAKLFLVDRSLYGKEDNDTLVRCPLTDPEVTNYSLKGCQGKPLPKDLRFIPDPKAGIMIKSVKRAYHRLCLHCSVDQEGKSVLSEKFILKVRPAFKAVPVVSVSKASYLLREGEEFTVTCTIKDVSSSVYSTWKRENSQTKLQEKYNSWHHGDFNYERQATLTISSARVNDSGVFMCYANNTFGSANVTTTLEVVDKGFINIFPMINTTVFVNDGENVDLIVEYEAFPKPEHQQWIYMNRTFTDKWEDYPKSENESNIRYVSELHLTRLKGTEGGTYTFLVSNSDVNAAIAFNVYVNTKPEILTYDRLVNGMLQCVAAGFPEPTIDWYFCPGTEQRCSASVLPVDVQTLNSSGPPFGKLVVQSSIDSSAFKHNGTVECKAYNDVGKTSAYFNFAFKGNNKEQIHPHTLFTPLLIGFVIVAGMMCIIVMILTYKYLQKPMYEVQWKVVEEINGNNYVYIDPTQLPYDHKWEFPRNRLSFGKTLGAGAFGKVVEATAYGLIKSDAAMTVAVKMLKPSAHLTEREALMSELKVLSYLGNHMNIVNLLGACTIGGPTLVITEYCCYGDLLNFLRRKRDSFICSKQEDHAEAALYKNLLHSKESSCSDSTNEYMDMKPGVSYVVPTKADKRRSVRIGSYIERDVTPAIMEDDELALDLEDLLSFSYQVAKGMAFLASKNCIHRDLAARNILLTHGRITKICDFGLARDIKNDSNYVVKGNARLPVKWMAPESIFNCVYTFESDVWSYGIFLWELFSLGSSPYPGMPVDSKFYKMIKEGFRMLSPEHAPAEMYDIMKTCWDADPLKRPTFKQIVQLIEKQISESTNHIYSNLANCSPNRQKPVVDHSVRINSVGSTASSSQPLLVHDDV

| Compound | IC50 [µM] |
| --- | --- |
| CN(c1cccc(-c2cnc3[nH]cc(-c4ccc5ncn(C)c5c4)c3c2)c1)S(C)(=O)=O [P-120, N-methyl-N-[3-[3-(3-methylbenzimidazol-5-yl)-1H-pyrrolo[2,3-b]pyridin-5-yl]phenyl]methanesulfonamide] | 1 to 10 |
| COc1cnc2[nH]cc(-c3ccc4ncn(-c5ccc(F)c(C)c5)c4c3)c2c1 [P-129, 1-(4-fluoro-3-methyl-phenyl)-6-(5-methoxy-1H-pyrrolo[2,3-b]pyridin-3-yl)benzimidazole] | 10 to 200 |
| CC(C)(C)n1cnc2ccc(-c3c[nH]c4ncc(-c5cccc(NS(C)(=O)=O)c5)nc34)cc21 [P-097, N-[3-[7-(3-tert-butylbenzimidazol-5-yl)-5H-pyrrolo[2,3-b]pyrazin-2-yl]phenyl]methanesulfonamide] | 0.0001 to 1 |
| COc1cc(-c2cnc3[nH]cc(-c4ccc5ncn(C(C)(C)C)c5c4)c3n2)ccn1 [P-099, 7-(3-tert-butylbenzimidazol-5-yl)-2-(2-methoxy-4-pyridyl)-5H-pyrrolo[2,3-b]pyrazine] | 1 to 10 |
| COc1cnc2[nH]cc(-c3ccc4ncn(-c5cccc(C#N)c5)c4c3)c2c1 [P-135, 3-[6-(5-methoxy-1H-pyrrolo[2,3-b]pyridin-3-yl)benzimidazol-1-yl]benzonitrile] | 10 to 200 |
| COc1cnc2[nH]cc(-c3ccc4ncn(-c5cccc(F)c5)c4c3)c2c1 [P-128, 1-(3-fluorophenyl)-6-(5-methoxy-1H-pyrrolo[2,3-b]pyridin-3-yl)benzimidazole] | 10 to 200 |
